“Also recorded” adds a separate entry of the source. Ends that are not written are not given here.
What was measured:
TYR [1] = target: T1, TYR (Agaricus bisporus, UniProt C7FF04); design: method as in 2 sources, one per row (each row's own in cited_ref): ref [48] = [48]; PMID 34313364; doi:10.1002/ardp.202100204; 48. Krobthong S. Yingchutrakul Y. Samutrtai P. Choowongkomon K. The C-terminally shortened analogs of a hexapeptide derived from Lingzhi hydrolysate with enhanced tyrosinase-inhibitory activity Arch. ||| ref [16],[17] = [16]; PMID 33459057; doi:10.1080/10408398.2021.1871724; 16. Peng Z.Y. Wang G.C. Zeng Q.H. Li Y.F. Liu H.Q. Wang J.J. Zhao Y. A systematic review of synthetic tyrosinase inhibitors and their structure-activity relationship Crit. Rev. Food Sci. Nutr. 2021 62 || [17]; PMID 35603815; doi:10.1111/1750-3841.16160; 17. Xue W. Liu X. Zhao W. Yu Z. Identification and molecular mechanism of novel tyrosinase inhibitory peptides from collagen J. Food Sci. 2022 87 2744 2756 10.1111/1750-3841.16160 35603815; details: ref [16],[17]; cited from earlier work
T1 construct: purchased Shanghai Yuanye Bio-Technology Co., Ltd. (Shanghai, China)
Source text: Bioactive peptides are functional peptide fragments produced during the hydrolysis, cleavage, or maturation of proteins, and their relative molecular mass is usually less than 6000 Da.

[2] = ref [47]; cited from earlier work
Source text: Guo isolated and purified 29 antioxidant peptides from RJ and verified their antioxidant activity.

TYR [3] = target: T1, TYR; test: TYR inhibitory activity (L-DOPA oxidation); type: biochemical
Description: Determination and calculation methods of TYR inhibitory activity were referred to the detection method of Ji and modified slightly. Briefly, the TYR was dissolved to prepare solutions using 0.05 M phosphate buffer saline (pH 6.8). Then, the mixed 40 μL of ERJ, 2 U/mL 100 μL of TYR, and 1.0 mmol/L 100 μL of L-DOPA were added in a 96-well plate, and the absorbance at 475 nm was measured immediately after 10 s and recorded as A1. The reaction system was incubated for 190 s at 25 °C and measured again and recorded as A2. We repeated the above steps by replacing the ERJ with buffer and measuring the absorbance value after 10 s, recorded as A3, and the absorbance value after 190 s as A4. The inhibition rate of ERJ on TYR was calculated according to the following equation:(1) Inhibition percentage (%)=(1−ΔA/ΔB) × 100% where, ΔA = A2 − A1, ΔB = A4 − A3.

[4] = test system: fungus, yeast, and bacteria; details: ref [45],[46]; cited from earlier work

T1 sequence (C7FF04 2-392): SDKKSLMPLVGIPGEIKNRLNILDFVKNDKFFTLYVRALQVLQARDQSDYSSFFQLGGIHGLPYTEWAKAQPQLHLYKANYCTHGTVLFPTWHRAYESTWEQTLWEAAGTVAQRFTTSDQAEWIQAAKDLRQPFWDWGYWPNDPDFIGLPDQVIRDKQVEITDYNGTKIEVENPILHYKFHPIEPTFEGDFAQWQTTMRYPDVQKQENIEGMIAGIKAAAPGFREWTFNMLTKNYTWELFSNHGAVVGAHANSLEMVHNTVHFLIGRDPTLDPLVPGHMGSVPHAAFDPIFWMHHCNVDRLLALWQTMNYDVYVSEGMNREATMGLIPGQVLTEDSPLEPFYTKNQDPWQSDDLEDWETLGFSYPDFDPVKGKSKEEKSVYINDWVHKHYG

OC[C@H]1O[C@@H](Oc2ccc(O)cc2)[C@H](O)[C@@H](O)[C@@H]1O [arbutin]
inhibitory effect on TYR activity (in words), literature (TYR [1]): strong inhibitory effects

Oc1ccc(O)cc1 [hydroquinone]
inhibitory effect on TYR activity (in words), literature (TYR [1]): strong inhibitory effects

Arg-Tyr
free radical scavenging ability [2]: strong free radical scavenging ability

IIPFIF [IIPFIF]
TYR inhibitory activity (in words) (TYR [3]): maximum activity; also recorded: highest of the three peptides

ILFTLL [ILFTLL]
TYR inhibitory activity (in words) (TYR [3]): lowest activity; also recorded: lowest of the three peptides

Tyr-Tyr
free radical scavenging ability [2]: strong free radical scavenging ability

B1: MRJP-4: major royal jelly protein (protein, UniProt Q17061 16-464, looked up)
Major royal jelly protein 4: QNIRGGVVRENSSGKNLTNTLNVIHKWKYLDYDFDNDERRQAAIQSGEYDRTKNYPLDVDQWHNKTFLAVIRYNGVPSSLNVVSDKTGNGGRLLQPYPDWSFAKYEDCSGIVSAHKIAIDEYERLWVLDSGLVNNTQPMCSPKLFAFDLNTSQLLKQVEIPHDVATTGKGELVSLTVQAMDSTNTMVYMVDNKNTLIIYQNADDSFHRLSSHTLNHNSDKMSDQQENLTLKEVDNKVYGMALSPVTHNLYYNSPSSENLYYVNTESLMKSENQGNDVQYERVQDVFDSQLTVKAVSKNGVLLFGLANNTLSCWNEHQSLDRQNIDVVARNEDTLQMVVSMKIKQNVPQSGRVNNTQRNEYLLALSDRNQNVLNNDLNLEHVNFQILGANVNDLIRNSRCANFDNQDNNHYNHNHNQARHSSKSDNQNNNQHNDQAHHSSKSNNRHNNND
antibacterial properties [4]: have antibacterial properties

B2: MRJP-2: major royal jelly protein (protein, UniProt O77061 18-452, looked up)
Major royal jelly protein 2: AIVRENSPRNLEKSLNVIHEWKYFDYDFGSEERRQAAIQSGEYDHTKNYPFDVDQWRDKTFVTILRYDGVPSTLNVISGKTGKGGRLLKPYPDWSFAEFKDCSKIVSAFKIAIDKFDRLWVLDSGLVNRTVPVCAPKLHVFDLKTSNHLKQIEIPHDIAVNATTGKGGLVSLAVQAIDLANTLVYMADHKGDALIVYQNADDSFHRLTSNTFDYDPRYAKMTIDGESFTLKNGICGMALSPVTNNLYYSPLASHGLYYVNTAPFMKSQFGENNVQYQGSEDILNTQSLAKAVSKNGVLFVGLVGNSAVGCWNEHQSLQRQNLEMVAQNDRTLQMIAGMKIKEELPHFVGSNKPVKDEYMLVLSNRMQKIVNDDFNFDDVNFRILGANVKELIRNTHCVNNNQNDNIQNTNNQNDNNQKNNKKNANNQKNNNQNDN
antibacterial properties [4]: have antibacterial properties

Source: PMC10252203, “Tyrosinase Inhibitory Peptides from Enzyme Hydrolyzed Royal Jelly: Production, Separation, Identification and Docking Analysis” (Foods, 2023)
